The values below come from paper PMC6471427, “Halogen-Substituted Triazolethioacetamides as a Potent Skeleton for the Development of Metallo-β-Lactamase Inhibitors” (Molecules, 2019).

For one assay, the target named is MβLs. Set-up: method as in PMID 11564740. The settings on record: broad spectrum MβLs inhibitor; read-out: Ki against MβLs; cited from earlier work.
Another assay has as its target T1, ImiS (Aeromonas veronii, UniProt O31272).
T1 construct: made in house
Description: Inhibition of ImiS-catalysed hydrolysis of imipenem (UV-vis kinetics; IC50, Ki, mode). The format is biochemical. Conditions: for Inhibition mode against ImiS: Lineweaver-Burk plots. The text has this: (§1) To test whether these halogen-substituted triazolethioacetamides were inhibitors of the MβLs, three subclasses MβLs B1(VIM-2 and NDM-1), B2 (ImiS), and B3 (L1) were expressed and purified as previously described. […] On the whole, triazolethioacetamides containing chlorine (1–8) increase the inhibitory potency slightly on average compared to those containing fluorine (9–12), but the presence of trifluoromethoxy (13) is beneficial to increase the inhibitory activity. […] Furthermore, replacement of two hydrogen at the anilino group with chlorine (4 and 5) or fluorine (12) relatively reduces the inhibitory activity, especially compound 12 with two fluorine at 2,5-position of anilino group.
(§2) The inhibition studies were carried out on an Agilent UV 8453 spectrophotometer at 25 °C using cefazolin as substrate of […], NDM-1, and L1 and imipenem as substrate of ImiS. Inhibitors 1–13 were dissolved in DMSO and then diluted with Tris-HCl, pH 7.0. The substrate concentrations were varied between 25 and 400 μM, and inhibitor concentrations were varied between 125 nM and 1 mΜ. The enzyme and inhibitor were pre-incubated for 30 min before starting the kinetic experiments. The IC50 values for all analyzed compounds were calculated based on the kinetic data. The mode of inhibition was determined by generating Lineweaver-Burk plots of the data, and the Ki was determined by replotting the data for slope and intercept versus […].

The next assay addresses T2, NDM-1 (Klebsiella pneumoniae, UniProt C7C422).
T2 construct: made in house
Briefly: Inhibition of NDM-1 with cefazolin as substrate (UV-vis kinetics). Conditions: read-out: IC50 against NDM-1. The format is biochemical.
Text: as §1, §2

For a further assay, the target named is T3, VIM-2 (Escherichia coli, UniProt Q5U7L7).
T3 construct: made in house
Briefly: Inhibition of VIM-2 (UV-vis kinetics). The settings on record: 25 °C, Tris-HCl pH 7.0, 30 min pre-incubation; read-out: IC50 against VIM-2. Type of assay: biochemical.
Text: as §1, §2

Where [1] appears, read: 25 °C, Tris-HCl pH 7.0, 30 min pre-incubation.

The structures appear in SMILES notation. Read-outs that look alike come from different tables or passages of the source.

T1 sequence (O31272 28-255): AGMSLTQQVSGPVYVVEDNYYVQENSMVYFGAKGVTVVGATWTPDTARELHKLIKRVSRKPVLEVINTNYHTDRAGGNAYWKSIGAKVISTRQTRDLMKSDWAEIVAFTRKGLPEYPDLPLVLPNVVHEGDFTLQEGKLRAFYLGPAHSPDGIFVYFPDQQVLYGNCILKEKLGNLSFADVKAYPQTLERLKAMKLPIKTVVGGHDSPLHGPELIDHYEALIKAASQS
T2 sequence (C7C422 29-270, looked up, species assumed): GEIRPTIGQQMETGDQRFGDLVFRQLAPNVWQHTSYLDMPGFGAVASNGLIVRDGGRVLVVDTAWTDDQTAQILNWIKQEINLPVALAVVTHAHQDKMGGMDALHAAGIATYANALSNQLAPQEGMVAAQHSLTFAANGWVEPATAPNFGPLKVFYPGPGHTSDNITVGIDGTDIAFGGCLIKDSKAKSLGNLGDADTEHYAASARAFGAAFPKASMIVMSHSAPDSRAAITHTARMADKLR

For `O=C(O)C(S)c1ccccc1` (single isomer, unassigned) [S-isomer, thiomandelic acid], at MβLs, the inhibition constant Ki (in general, the dissociation constant of the complex between target and ligand, obtained from inhibition or displacement) is 1.28 µM.
For `O=C(CSc1nnc(-c2ccccc2O)[nH]1)Nc1ccccc1Cl` [Compound 1], the IC50 (in general, the concentration that gives 50% inhibition) was 0.032 µM against ImiS, 960 ± 70 nM on NDM-1 (setting [1]) and > 1000 µM at VIM-2.
On to `O=C(CSc1nnc(-c2ccccc2O)[nH]1)Nc1cccc(Cl)c1` [Compound 2], for which the 50% inhibitory concentration (IC50) on ImiS is 0.045 ± 0.002 µM; at NDM-1 (setting [1]), 170 ± 20 nM; at NDM-1 (value in nM), 170 nM; at VIM-2 it was > 1000 µM.
`O=C(CSc1nnc(-c2ccccc2O)[nH]1)Nc1ccc(Cl)cc1` [Compound 3]: the results for the IC50 at ImiS, on NDM-1 (setting [1]) and on VIM-2 were 0.051 ± 0.006 µM, 370 ± 50 nM and > 1000 µM, respectively.
For `O=C(CSc1nnc(-c2ccccc2O)[nH]1)Nc1ccc(Cl)c(Cl)c1` [Compound 4] the same measures were 0.27 ± 0.02 µM, > 1e+06 nM and > 1000 µM.
The matching figures for `O=C(CSc1nnc(-c2ccccc2O)[nH]1)Nc1ccc(Cl)cc1Cl` [Compound 5]: 0.16 ± 0.03 µM, > 1e+06 nM and > 1000 µM.
Regarding `O=C(CSc1nnc(-c2ccccc2O)[nH]1)Nc1ccc(Cl)cc1[N+](=O)[O-]` [Compound 6], the IC50 is 0.78 ± 0.08 µM on ImiS, > 1e+06 nM on NDM-1 (setting [1]) and > 1000 µM at VIM-2.
On to `O=C(CSc1nnc(-c2ccccc2O)[nH]1)Nc1cc(Cl)ccc1[N+](=O)[O-]` [Compound 7], for which the IC50 against ImiS was 0.2 ± 0.04 µM; on NDM-1 (setting [1]) it was > 1e+06 nM; at VIM-2, > 1000 µM.
Consider `O=C(CSc1nnc(-c2ccccc2O)[nH]1)Nc1ccc([N+](=O)[O-])cc1Cl` [Compound 8], for which the half-maximal inhibitory concentration (IC50) was 0.26 ± 0.03 µM at ImiS, > 1e+06 nM at NDM-1 (setting [1]) and > 1000 µM at VIM-2.
In the case of `O=C(CSc1nnc(-c2ccccc2O)[nH]1)Nc1ccccc1F` [Compound 9], the IC50 against ImiS is 0.072 ± 0.005 µM; on NDM-1 (setting [1]) it was > 1e+06 nM; on VIM-2, > 1000 µM. The inhibition constant Ki on ImiS came out at 0.074 µM. Also, the “Inhibition mode against ImiS” value at ImiS (imipenem as substrate) is “mixed inhibitors”.
Turning to `O=C(CSc1nnc(-c2ccccc2O)[nH]1)Nc1cccc(F)c1` [Compound 10], the 50% inhibitory concentration (IC50) was 0.98 ± 0.04 µM at ImiS, > 1e+06 nM on NDM-1 (setting [1]) and > 1000 µM at VIM-2.
For the compound `O=C(CSc1nnc(-c2ccccc2O)[nH]1)Nc1ccc(F)cc1` [Compound 11], the results for the IC50 against ImiS, on NDM-1 (setting [1]) and at VIM-2 were > 50 µM, > 1e+06 nM and > 1000 µM, respectively. At ImiS (imipenem as substrate), the “Inhibitory activity against ImiS (in words)” value is reported as “nearly had no inhibitory activity”.
As for `O=C(CSc1nnc(-c2ccccc2O)[nH]1)Nc1c(F)cccc1F` [Compound 12], the half-inhibitory concentration (IC50) at ImiS was 15.6 ± 3 µM; at NDM-1 (setting [1]), > 1e+06 nM; at VIM-2, 38.9 ± 5 µM.
As for `O=C(CSc1nnc(-c2ccccc2O)[nH]1)Nc1ccc(OC(F)(F)F)cc1` [Compound 13], the IC50 was 0.23 ± 0.09 µM against ImiS, > 1e+06 nM on NDM-1 (setting [1]) and 2.8 ± 0.3 µM on VIM-2. The same compound yielded a Ki at ImiS of 0.27 µM. The “Inhibition mode against ImiS” value on ImiS (imipenem as substrate) is recorded as “mixed inhibitors”.
As to `O=C(O)C(S)c1ccccc1` (centres unmarked) [rthiomandelic acid, thiomandelic acid], at MβLs, the Ki was 0.09 µM.
